According to patent US20140057979A1, “Expression Modulator For Clock Gene” (Shiseido Company, Ltd., priority 2012, published 2014):

Assays:
Format in all cases: cell-based
[1] = test system: hBmal1 gene; assay: Induction of circadian rhythm of hBmal1 expression with cortisol in cultured human skin fibroblast cells; conditions: 50 ng/ml cortisol, 2 hours of treatment, cells sampled over time (FIG. 2)
Experimental: (§1) It was confirmed that a circadian rhythm of clock gene expression can be induced in a system using cultured human skin fibroblast cells.
(§2) As the cultured human fibroblast cells, fibroblast cells from normal human skin were purchased (Cell Application, Inc.) and used in the experiments. They were seeded on DMEM medium with 10% FBS, 20 mM HEPES, Glutamax and an antibacterial agent added thereto, and cultured at 37° C. in 5% CO2. On the 6th day of culture, 50 ng/ml of cortisol was added, and after 2 hours of treatment the cells were sampled over time. RNA was extracted from the cells with a commercial RNA extraction kit, and the expressed amounts of the hBmal1 and hPer1 genes were measured by RT-PCR using a commercial PCR primer (Perfect Real Time Primer, Takara Bio). Similarly, the expressed amount of the housekeeping gene RPLP0 was assayed and used as an internal standard to calculate the expressed amounts of the target genes relative to the expressed amount of RPLP0.
(§3) In the body, cortisol and other glucocorticoids are involved in regulating the biological clock in peripheral tissue and the like, and it is thought that blood concentrations of cortisol rise at the time of awakening in the morning, resetting the biological clock. […]

[2] = test system: hPer1 gene; assay: Induction of circadian rhythm of hPer1 expression with cortisol in cultured human skin fibroblast cells; conditions: 50 ng/ml cortisol, 2 hours of treatment, cells sampled over time (FIG. 2)
Experimental: as §1, §2, §3

[3] = test system: hBmal1 gene; assay: Clock gene expression regulation, hBmal1 expressed amount by RT-PCR in cultured human skin fibroblast cells; conditions: for Relative expressed amount of hBmal1 (16 hours): 50 ppm test substance, 16 hours after addition, relative to RPLP0, control 0.48, *p < 0.05; for expressed amount of hBmal1 gene in comparison with the control: 50 ppm, 16 hours, Dunnett's test one-sided 5%
Experimental: (§4) The results above confirm that in an evaluation system using cultured human skin fibroblast cells, clock genes acquire a circadian rhythm when stimulated with cortisol. Because it is desirable to evaluate during a time period when the expressed amount is high, the clock gene expression regulation effects of the test substances were evaluated based on the expressed amount of the clock gene 16 hours after stimulation in the case of hBmal1 and 2 hours after stimulation in the case of hPer1.
(§5) Fibroblasts cells from normal human skin (Cell Application, Inc.) were seeded by methods similar to those used above, each chemical was added on the 6th day of culture to a concentration of 50 ppm, and the cells were sampled after 2 hours and after 16 hours. The same amount of ethanol was added instead of the test substance as a control. RNA was extracted from the cells with a commercial RNA extraction kit, and the expressed amounts of the hBmal1 and hPer1 genes were measured by RT-PCR using a commercial PCR primer (Perfect Real Time Primer, Takara Bio). Similarly, the expressed amount of the housekeeping gene RPLP0 was assayed and used as an internal standard to calculate the expressed amounts of the target genes relative to the expressed amount of RPLP0. Dunnett's multiple comparison test was performed on the obtained values, and an effect was recognized if there was a significant difference with a one-sided 5% risk factor in comparison with the control.

[4] = test system: hPer1 gene; assay: Clock gene expression regulation, hPer1 expressed amount by RT-PCR in cultured human skin fibroblast cells; conditions: for Relative expressed amount of hPer1 (2 hours): 50 ppm test substance, 2 hours after addition, relative to RPLP0, control 0.24, *p < 0.05; for expressed amount of hPer1 gene in comparison with the control: 50 ppm, 2 hours, Dunnett's test one-sided 5%
Experimental: as §4, §5

For `C[C@]12CCC(=O)C=C1CC[C@@H]1[C@@H]2[C@@H](O)C[C@@]2(C)[C@H]1CC[C@]2(O)C(=O)CO` [cortisol], the “cycle of circadian rhythm of hBmal1 expression as a result of cortisol stimulation” value [1] was “roughly 24 hour” and the “cycle of circadian rhythm of hPer1 expression as a result of cortisol stimulation” value [2] was “roughly 24 hour”.
`COC(=O)c1ccccc1C` [Methyl 2-methylbenzoate, methyl 2-methylbenzoate] was tested, and the “Relative expressed amount of hBmal1 (16 hours)” value [3] was 1.01*, the “expressed amount of hBmal1 gene in comparison with the control” value (“expressed amount of hBmal1 gene” for short) [3] was “significantly increased” and the “Relative expressed amount of hPer1 (2 hours)” value [4] was 0.44*. For the same compound, the “expressed amount of hPer1 gene in comparison with the control” value (from here on “expressed amount of hPer1 gene”) [4] was “significantly increased”.
`C=C1CC[C@H]2O[C@]2(C)CC[C@@H]2[C@@H]1CC2(C)C` [Caryophyllene oxide, (1R,4R,6R,10S)-4,12,12-trimethyl-9-methylene-5-oxatricyclo[8.2.0.04.6]dodecane] was tested, and the “Relative expressed amount of hBmal1 (16 hours)” value [3] was 3.50*, the “expressed amount of hBmal1 gene” value [3] was “significantly increased” and the “Relative expressed amount of hPer1 (2 hours)” value [4] was 2.29*. The “expressed amount of hPer1 gene” value [4] was “significantly increased”.
For `COC(=O)c1ccccc1N` [Methyl 2-aminobenzoate], the “Relative expressed amount of hBmal1 (16 hours)” value [3] was 1.19*, the “expressed amount of hBmal1 gene” value [3] was “significantly increased” and the “Relative expressed amount of hPer1 (2 hours)” value [4] was 0.64*. For the same compound, the “expressed amount of hPer1 gene” value [4] was “significantly increased”.
`CNc1ccccc1C(=O)OC` [Methyl 2-methylaminobenzoate] was tested, and the “Relative expressed amount of hBmal1 (16 hours)” value [3] was 2.52*, the “expressed amount of hBmal1 gene” value [3] was “significantly increased” and the “Relative expressed amount of hPer1 (2 hours)” value [4] was 0.64*. For the same compound, the “expressed amount of hPer1 gene” value [4] was “significantly increased”.
